Experiments:
Type in all cases: cell-based, human
[1] = test system: HDAC6-BDNF PIV association; experiment: ChIP: HDAC6 association with BDNF promoter IV
Method: (§1) Human SH-SY5Y neuroblastoma cells (Sigma-Aldrich), were cultured in 45% F12K, 45% MEM, and 10% FBS. Cells were treated with cholesterol, ASPD, ApoE3/ApoE4+cholesterol, or PKC activators for 24 h. Cholesterol was dissolved in ethanol. ApoE (20 nM) and cholesterol (100 μM) were mixed separately into the cultures. To block the ApoE receptors, cells were treated with RAP for 30 min before adding ApoE. Human primary neurons (ScienCell Research Laboratories) were plated on poly-L-lysine-coated plates and were maintained in neuronal medium (ScienCell Research Laboratories) supplemented with the neuronal growth supplements (ScienCell Research Laboratories). Half of the culture medium was changed every 3 d and fresh activators were added with every medium change to maintain viable neurons.
(§2) BDNF promoter- and exon specific primers were used as described previously (Pruunsild et al., Dissecting the human BDNF locus: bidirectional transcription, complex splicing, and multiple promoters, Genomics, 90:397-406, 2007). […]
(§3) ChIP was conducted using the SimpleChlP Enzymatic Chromatin IP kit (Cell Signaling Technology) following the manufacturer's protocol. […] The cumulative fluorescence for each amplicon was normalized to input DNA. […]

[2] = test system: HDAC4; experiment: HDAC4 nuclear translocation in SH-SY5Y cells (immunoblot); details: ApoE4+ASPD induced translocation, 24 h
Method: as §1
A PBS solution of 5×10^6 Human SH-SY5Y neuroblastoma cells was centrifuged and the resultant cell pellet was resuspended and washed twice with cold PBS. After the second wash, the cell pellet was resuspended in 500 μl of hypotonic buffer (20 mM Tris-Cl, pH 7.4, 10 mM NaCl, 3 mM MgCl2, and 1 mM PMSF) and incubated on ice for 15 min. Next, 25 μl of 10% NP-40 was added to the cell suspension and the sample was vortexed for 10 s. The homogenate was centrifuged for 10 min at 1000×g at 4° C. to obtain the cytoplasmic fraction (supernatant) and nuclear fraction (pellet). […] Protein concentration was measured using the Coomassie Plus (Bradford) Protein Assay kit (Pierce).
Protein in samples of the supernetant and nuclear fractions was separated by SDSPAGE in a 4-20% gradient Tris-Glycine gel (Invitrogen). […] The immunoblot proteins were detected using ImageQuant RT-ECL (GE Life Sciences) and densitometric quantification was performed using IMAL software, which was developed at our institution. […]

[3] = test system: PKCε mRNA; experiment: PKCε mRNA expression in SH-SY5Y cells (qRT-PCR); details: ASPD+ApoE4 treated cells plus PKC activator
Method: as §1
qRT-PCR was performed and the results analyzed as described previously (Schmittgen et al., Analyzing real-time PCR data by the comparative C(T) method, Nat. Protoc., 3:1101-1108, 2008; Sen et al., 2012 supra). Total RNA (500 ng) was reverse transcribed using oligo(dT) and Superscript III (Invitrogen) at 50° C. for 1 h. The cDNA products were analyzed using a LightCycler 480 II (Roche) PCR machine and LightCycler 480 SYBR Green 1 master mix following the manufacturer's protocol. […]

[4] = test system: BDNF mRNA; experiment: BDNF mRNA expression in SH-SY5Y cells (qRT-PCR)
Method: as §1
(§4) qRT-PCR was performed and the results analyzed as described previously (Schmittgen et al., Analyzing real-time PCR data by the comparative C(T) method, Nat. Protoc., 3:1101-1108, 2008; Sen et al., 2012 supra). Total RNA (500 ng) was reverse transcribed using oligo(dT) and Superscript III (Invitrogen) at 50° C. for 1 h. The cDNA products were analyzed using a LightCycler 480 II (Roche) PCR machine and LightCycler 480 SYBR Green 1 master mix following the manufacturer's protocol. Primers for PKCε (forward primer: […], reverse primer: […], PKCα (forward-[…], reverse: […]), PKC (forward: […], reverse: CCGATG […]), GAPDH (forward: […], reverse: […]), and BDNF (forward: […], reverse: […]; Origene).

[5] = test system: BDNF-exon IV; experiment: BDNF-exon IV expression in SH-SY5Y cells (qRT-PCR)
Method: as §1, §4
BDNF promoter- and exon specific primers were used as described previously (Pruunsild et al., Dissecting the human BDNF locus: bidirectional transcription, complex splicing, and multiple promoters, Genomics, 90:397-406, 2007). BDNF-promotor I (PI) (forward: […], reverse: […]), BDNF-promotor II (PII) (forward: […], reverse: […]), BDNF-promotor III (PIII) (forward: […], reverse: […]), BDNF-promoter (IV) (PIV) (forward: […], reverse: […]), BDNF-promoter IX (PIX) (forward: […], reverse: […]) were from Invitrogen. […]

[6] = test system: HDAC6-BDNF PIII association; experiment: ChIP: HDAC6 association with BDNF promoter III
Method: as §1, §2, §3

[7] = test system: HDAC6; experiment: HDAC6 nuclear translocation in SH-SY5Y cells (immunoblot); details: ApoE4+ASPD induced translocation, 24 h
Method: as §1
A PBS solution of 5×10^6 Human SH-SY5Y neuroblastoma cells was centrifuged and the resultant cell pellet was resuspended and washed twice with cold PBS. After the second wash, the cell pellet was resuspended in 500 μl of hypotonic buffer (20 mM Tris-Cl, pH 7.4, 10 mM NaCl, 3 mM MgCl2, and 1 mM PMSF) and incubated on ice for 15 min. Next, 25 μl of 10% NP-40 was added to the cell suspension and the sample was vortexed for 10 s. The homogenate was centrifuged for 10 min at 1000×g at 4° C. to obtain the cytoplasmic fraction (supernatant) and nuclear fraction (pellet). After removing the supernetant, the nuclear pellet was resuspended in 50 μl of complete cell extraction buffer (100 mM Tris-Cl, pH 7.4, 2 mM Na3VO4, 100 mM NaCl, 1% Triton X-100, 1 mM EDTA, 10% glycerol, 1 mM EGTA, 0.1% SDS, 1 mM NaF, 0.5% deoxycholate, 20 mM Na4P2O7, and 1 mM PMSF) and incubated on ice for 30 min with vortexing at 10 min intervals. The nuclear lysate was centrifuged at 14,000×g for 30 min at 4° C. to obtain the nuclear fraction (supernatant). Protein concentration was measured using the Coomassie Plus (Bradford) Protein Assay kit (Pierce).
Protein in samples of the supernetant and nuclear fractions was separated by SDSPAGE in a 4-20% gradient Tris-Glycine gel (Invitrogen). The protein was then transferred to nitrocellulose membrane. The membrane was blocked with BSA at room temperature for 15 min and incubated with primary antibody overnight at 4° C. After incubation, the membrane was washed thrice (3×) with TBS-T (Tris-buffered saline-Tween 20) and further incubated with alkaline-phosphatase-conjugated secondary antibody (Jackson Immunoresearch Laboratories) at 1:10,000 dilution for 45 min. Following incubation, the membrane was washed 3× with TBS-T and developed using the 1-step NBT-BCIP substrate (Pierce). […] The immunoblot proteins were detected using ImageQuant RT-ECL (GE Life Sciences) and densitometric quantification was performed using IMAL software, which was developed at our institution. […]

CCCCCC1CC1CC1CC1CCCCCCCC(=O)OC (stereo not shown) [DCPLA-ME, DCPLA methyl ester]
effect on ApoE4+Chol induced HDAC6-PIV association [1]: blocked the ApoE4+Chol induced increase | reduction of nuclear import of HDAC4 [2]: 35±6.9% | PKCε mRNA levels [3]: 0.95±0.09 fold | BDNF expression ([4]; cells treated with ApoE4+Chol+DCPLA-ME): 0.95±0.1 | BDNF expression ([4]; cholesterol treated cells): 1.91±0.21 fold | BDNF-exon IV expression ([5]; ApoE3+Chol+DCPLA-ME): 1.98±0.13 | BDNF-exon IV expression ([5]; ApoE4+Chol+DCPLA-ME): 0.74±0.01 | BDNF-exon IV expression ([5]; DCPLA-ME+Chol): 1.85±0.27 fold | effect on ApoE4+Chol induced HDAC6-PIII association [6]: blocked the ApoE4+Chol induced increase | reduction in nuclear HDAC6 [7]: 56±5.9%

Reference: US20180217163A1, “TREATMENT OF NEURODEGENERATIVE CONDITIONS USING PKC ACTIVATORS AFTER DETERMINING THE PRESENCE OF THE APOE4 ALLELE” (priority 2015, published 2018)
